The values below come from ChEMBL document CHEMBL1201862, “PubChem BioAssay data set” (2004).

Among the test systems are U-251; SN12C; NCI-H23; A498; TK-10; OVCAR-8; A549; NCI/ADR-RES; SF-539; HCT-116; SF-295; HL-60; ACHN; OVCAR-4; NCI-H522; OVCAR-3; COLO 205; K562; RXF 393; MDA-MB-435.
Assay in all cases: growth of human tumour cells (NCI), 48 h

Molecules are shown by their SMILES.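 Compound exposure: 48 hours, 5 concentrations, 96-well plates. Abbreviation: GI50, concentration required for 50% inhibition of growth.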 Activity calls are given as the source filed them. No stated cut-off is given here; in the data, active = GI50 up to about 1.1 µM and inactive = higher.

As to `CCOP(=O)(OCC)C(Nc1cccc(F)c1)c1ccc(N(C)C)cc1` (stereo not given), the GI50 with U-251, in the test with SN12C, in the test on NCI-H23, in the test on A498, with TK-10 and with OVCAR-8 was > 100 µM (inactive) each time. The GI50 was 52.7 µM (inactive) with A549; 81.8 µM (inactive) in the test on NCI/ADR-RES; > 100 µM (inactive) in the test with SF-539; 48.5 µM (inactive) with HCT-116; 57 µM (inactive) in the test on SF-295; 45.7 µM (inactive) in the test on HL-60. In addition, the GI50 in the test on ACHN was > 100 µM (inactive); in the test on OVCAR-4, > 100 µM (inactive); in the test on NCI-H522, 75.5 µM (inactive); in the test on OVCAR-3 it was > 100 µM (inactive); in the test on COLO 205, 97.1 µM (inactive); in the test on K562, 49.1 µM (inactive). Further, the GI50 in the test on RXF 393 and in the test with MDA-MB-435 was > 100 µM (inactive) each time.

As to `COc1ccc([C@@]23Oc4cc(OC)cc(OC)c4[C@]2(O)[C@H](O)[C@H](C(N)=O)[C@H]3c2ccccc2)cc1` [DIDESMETHYLROCAGLAMIDE], the GI50 in the test on U-251 is < 0.01 µM (active); with SN12C, < 0.01 µM (active); in the test on NCI-H23 it was < 0.01 µM (active); with A498, < 0.01 µM (active); with TK-10, 0.0105 µM (active); in the test with OVCAR-8, < 0.01 µM (active). Also, the GI50 is < 0.01 µM (active) in the test on A549; 0.0656 µM (active) in the test with NCI/ADR-RES; < 0.01 µM (active) in the test on SF-539; < 0.01 µM (active) in the test with HCT-116; < 0.01 µM (active) in the test on SF-295; < 0.0192 µM (active) in the test on HL-60. For the same compound, the GI50 with ACHN was < 0.01 µM (active); in the test with OVCAR-4, < 0.0126 µM (active); with NCI-H522 it was < 0.01 µM (active); in the test on OVCAR-3, < 0.01 µM (active); with COLO 205, < 0.01 µM (active); with K562, < 0.01 µM (active). Further, the GI50 in the test with RXF 393 and in the test with MDA-MB-435 was < 0.01 µM (active) throughout.
